{"source": "paper PMC10934261", "about": "“Designing Potent Anti-Cancer Agents: Synthesis and Molecular Docking Studies of Thieno[2,3-d][1,2,4]triazolo[1,5-a]pyrimidine Derivatives” (Molecules, 2024)", "key": {"[1]": {"test_system": "human prostate PC-3 cancer cell line", "assay": "In vitro cytotoxic screening (MTT assay), PC-3", "assay_type": "cell-based", "conditions": "average ± standard deviation", "experimental": "(§1) Using human breast MCF-7, colorectal HCT-116, and prostate PC-3 cancer cell lines, preliminary antiproliferative effectiveness of cyclopenta[4,5]thieno[2,3-d][1,2,4]triazolo[1,5-a]pyrimidin-9(6H)-ones 4–16 was established in vitro through MTT assay at different concentrations (100, 50, 25 and 12.5 μM) (Figure 2).\n(§2) The cell lines were obtained from Karolinska Center, Department of Oncology and Pathology, Karolinska Institute and Hospital, Stockholm, Sweden. as follows: human breast MCF-7, colorectal HCT-116 and prostate PC-3 cancer cell lines and human skin normal BJ-1 cell line. Exponentially, cells were cultured at a concentration of 10^4 cells/well for 24 h, afterwards fresh medium containing different concentrations of the tested samples was added. Serial two-fold dilution of the tested samples were added using a multichannel pipette. Moreover, all cells were cultivated at 37 °C, 5% CO2 and 95% humidity. Also, incubation of control cells occurred at 37 °C. However, after incubation for 24 h different concentrations of samples (100, 50, 25 and 12.5 µM) were added and the incubation was continued for 48 h, then crystal violet solution 1% was added to each well for 0.5 h to examine the presence of viable cells. After rinsing the wells using water until stain free, 30% glacial acetic acid was added to all wells with shaking the plates on a Microplate reader (TECAN, Inc.) to measure the absorbance at a wavelength of 490 nm. The cytotoxicity was estimated by IC50 in μM, which is the concentration that inhibits 50% of growth of cancer cells. […]\n(§3) 1.1. In vitro cytotoxic screening\n(§4) The cell lines were obtained from Karolinska Center, Department of Oncology and Pathology, Karolinska Institute and Hospital, Stockholm, Sweden. as follows: human breast MCF-7, colorectal HCT-116 and prostate PC-3 cancer cell lines and human skin normal BJ-1 cell line. Exponentially, cells were placed in 10^4 cells/ well for 24 h, and then add fresh medium which containing different concentration of the tested sample. Serial two-fold dilution of the tested sample were added using a multichannel pipette. Moreover, all cells were cultivated at 37 °C, 5% CO2 and 95% humidity. Also, incubation of control cells occurred at 37 °C. However, after incubation for 24 h different concentrations of sample (100, 50, 25 and 12.5 µM) were added and continued the incubation for 48 h, then, add the crystal violet solution 1% to each well for 0.5 h to examine viable cells. Rinse the wells using water until no stain. After that, add 30% glacial acetic acid to all wells with shaking plates on Microplate reader (TECAN, Inc.) to measure the absorbance, using a test wavelength of 490 nm. Besides, compare the treated samples with the control cell. The cytotoxicity was estimated by IC50 in (μ M), the concentration that inhibits 50% of growth of cancer cell. […]\n(§5) The molecular docking simulation of the promising in vitro screened cyclopenta[4,5]thieno[2,3-d][1,2,4]triazolo[1,5-a]pyrimidin-9(6H)-ones 10b and 10e against EGFR and PI3K was done using the Molecular Operating Environment software (MOE-Dock) version 2014.0901. The co-crystallized structures of EGFR and PI3K kinases complexed with their native ligands, erlotinib and quinolone LXX, were downloaded from the protein data bank (PDB codes: 1M17 and 3L54, respectively). All minimizations were performed using MOE until an RMSD gradient of 0.05 kcal∙mol−1Å−1 with MMFF94x force field and the partial charges were automatically calculated. Preparation of the enzyme structures was done for molecular docking using Protonate 3D protocol with the default options in MOE. London dG scoring function and Triangle Matcher placement method were used in the docking protocol. Initially, the original ligands were re-docked into the active binding site of EGFR and PI3K kinases to assess the root-mean-square deviation values. Then, the docking studies of the newly targeted […]"}, "[2]": {"test_system": "human breast MCF-7 cancer cell line", "assay": "In vitro cytotoxic screening (MTT assay), MCF-7", "assay_type": "cell-based", "conditions": "average ± standard deviation", "experimental": "as §1, §2, §3, §4, §5"}, "[3]": {"test_system": "human colorectal HCT-116 cancer cell line", "assay": "In vitro cytotoxic screening (MTT assay), HCT-116", "assay_type": "cell-based", "conditions": "average ± standard deviation", "experimental": "as §1, §2, §3, §4, §5"}}, "note": "Where “and” joins values, the source holds several entries; their conditions need not be identical. Identical values can stand only once.", "data": [{"smiles": "CCOC(=O)Cc1nn2c(=O)c3c4c(sc3nc2[nH]1)CCC4", "note": "[Compound 6, Ethyl 2-(9-oxo-6,7,8,9-tetrahydro-3H-cyclopenta[4,5]thieno[2,3-d][1,2,4]triazolo[1,5-a]-pyrimidin-2-yl)acetate]", "values": [{"measurement": "melting point", "result": "> 300", "unit": "°C"}, {"measurement": "Percentage cytotoxicity on PC-3", "setting": "[1]; 12.5 µM", "result": "0.0±0.005", "unit": "%"}, {"measurement": "Percentage cytotoxicity on PC-3", "setting": "[1]; 25 µM", "result": "0.0±0.005", "unit": "%"}, {"measurement": "Percentage cytotoxicity on PC-3", "setting": "[1]; 50 µM", "result": "0.0±0.005", "unit": "%"}, {"measurement": "Percentage cytotoxicity on PC-3", "setting": "[1]; 100 µM", "result": "15.1±4.1", "unit": "%"}, {"measurement": "Percentage cytotoxicity on MCF-7", "setting": "[2]; 12.5 µM", "result": "0.0±0.005", "unit": "%"}, {"measurement": "Percentage cytotoxicity on MCF-7", "setting": "[2]; 25 µM", "result": "0.0±0.005", "unit": "%"}, {"measurement": "Percentage cytotoxicity on MCF-7", "setting": "[2]; 50 µM", "result": "0.0±0.005", "unit": "%"}, {"measurement": "Percentage cytotoxicity on MCF-7", "setting": "[2]; 100 µM", "result": "24±2.5", "unit": "%"}, {"measurement": "Percentage cytotoxicity on HCT-116", "setting": "[3]; 12.5 µM", "result": "0.0±0.005", "unit": "%"}, {"measurement": "Percentage cytotoxicity on HCT-116", "setting": "[3]; 25 µM", "result": "0.0±0.005", "unit": "%"}, {"measurement": "Percentage cytotoxicity on HCT-116", "setting": "[3]; 50 µM", "result": "0.0±0.005", "unit": "%"}, {"measurement": "Percentage cytotoxicity on HCT-116", "setting": "[3]; 100 µM", "result": "0.0±0.005", "unit": "%"}]}, {"smiles": "CC(=O)C/C(C)=N/n1c(N[C@@H]2O[C@H](COC(C)=O)[C@@H](OC(C)=O)[C@H](OC(C)=O)[C@H]2OC(C)=O)nc2sc3c(c2c1=O)CCC3", "note": "[Compound 15, (E)-3-((4-Oxopentan-2-ylidene)amino)-2-((2,3,4,6-tetra-O-acetyl-β-D-glocopyranosyl)amino)-6,7-dihydro-3H-cyclopenta[4,5]thieno[2,3-d]pyrimidin-4(5H)-one]", "values": [{"measurement": "melting point", "result": "> 300", "unit": "°C"}, {"measurement": "Percentage cytotoxicity on PC-3", "setting": "[1]; 12.5 µM", "result": "0.0±0.005", "unit": "%"}, {"measurement": "Percentage cytotoxicity on PC-3", "setting": "[1]; 25 µM", "result": "0.0±0.005", "unit": "%"}, {"measurement": "Percentage cytotoxicity on PC-3", "setting": "[1]; 50 µM", "result": "0.0±0.005", "unit": "%"}, {"measurement": "Percentage cytotoxicity on PC-3", "setting": "[1]; 100 µM", "result": "5.6±1.2", "unit": "%"}, {"measurement": "Percentage cytotoxicity on MCF-7", "setting": "[2]; 12.5 µM", "result": "0.0±0.005", "unit": "%"}, {"measurement": "Percentage cytotoxicity on MCF-7", "setting": "[2]; 25 µM", "result": "0.0±0.005", "unit": "%"}, {"measurement": "Percentage cytotoxicity on MCF-7", "setting": "[2]; 50 µM", "result": "0.0±0.005", "unit": "%"}, {"measurement": "Percentage cytotoxicity on MCF-7", "setting": "[2]; 100 µM", "result": "19.7±3.7", "unit": "%"}, {"measurement": "Percentage cytotoxicity on HCT-116", "setting": "[3]; 12.5 µM", "result": "0.0±0.005", "unit": "%"}, {"measurement": "Percentage cytotoxicity on HCT-116", "setting": "[3]; 25 µM", "result": "0.0±0.005", "unit": "%"}, {"measurement": "Percentage cytotoxicity on HCT-116", "setting": "[3]; 50 µM", "result": "0.0±0.005", "unit": "%"}, {"measurement": "Percentage cytotoxicity on HCT-116", "setting": "[3]; 100 µM", "result": "3.0±1.2", "unit": "%"}]}, {"smiles": "O=c1c2c3c(sc2nc2nc([C@H](O)[C@@H](O)[C@@H](O)[C@H](O)CO)[nH]n12)CCC3", "note": "[Compound 11b, 2-((1S,2R,3S,4R)-1,2,3,4,5-pentahydroxypentyl)-1,6,7,8-tetrahydro-9H-cyclopenta[4,5]thieno[2,3-d][1,2,4]triazolo[1,5-a]pyrimidin-9-one]", "values": [{"measurement": "melting point", "result": "> 300", "unit": "°C"}, {"measurement": "Percentage cytotoxicity on PC-3", "setting": "[1]; 12.5 µM", "result": "0.0±0.005", "unit": "%"}, {"measurement": "Percentage cytotoxicity on PC-3", "setting": "[1]; 25 µM", "result": "0.0±0.005", "unit": "%"}, {"measurement": "Percentage cytotoxicity on PC-3", "setting": "[1]; 50 µM", "result": "0.0±0.005", "unit": "%"}, {"measurement": "Percentage cytotoxicity on PC-3", "setting": "[1]; 100 µM", "result": "12.7±3.8", "unit": "%"}, {"measurement": "Percentage cytotoxicity on MCF-7", "setting": "[2]; 12.5 µM", "result": "0.0±0.005", "unit": "%"}, {"measurement": "Percentage cytotoxicity on MCF-7", "setting": "[2]; 25 µM", "result": "0.0±0.005", "unit": "%"}, {"measurement": "Percentage cytotoxicity on MCF-7", "setting": "[2]; 50 µM", "result": "22.1±6.9", "unit": "%"}, {"measurement": "Percentage cytotoxicity on MCF-7", "setting": "[2]; 100 µM", "result": "39.4±8.3", "unit": "%"}, {"measurement": "Percentage cytotoxicity on HCT-116", "setting": "[3]; 12.5 µM", "result": "18.2±2.3", "unit": "%"}, {"measurement": "Percentage cytotoxicity on HCT-116", "setting": "[3]; 25 µM", "result": "16.1±1.6", "unit": "%"}, {"measurement": "Percentage cytotoxicity on HCT-116", "setting": "[3]; 50 µM", "result": "21.8±1.9", "unit": "%"}, {"measurement": "Percentage cytotoxicity on HCT-116", "setting": "[3]; 100 µM", "result": "18.7±7.6", "unit": "%"}]}, {"smiles": "O=c1c2c3c(sc2nc2nc([C@H](O)[C@@H](O)[C@H](O)[C@H](O)CO)[nH]n12)CCC3", "note": "[Compound 11a, 2-((1S,2R,3R,4R)-1,2,3,4,5-pentahydroxypentyl)-1,6,7,8-tetrahydro-9H-cyclopenta[4,5]thieno[2,3-d][1,2,4]triazolo[1,5-a]pyrimidin-9-one]", "values": [{"measurement": "melting point", "result": "> 300", "unit": "°C"}, {"measurement": "Percentage cytotoxicity on PC-3", "setting": "[1]; 12.5 µM", "result": "9.9±2.5", "unit": "%"}, {"measurement": "Percentage cytotoxicity on PC-3", "setting": "[1]; 25 µM", "result": "21.9±1.0", "unit": "%"}, {"measurement": "Percentage cytotoxicity on PC-3", "setting": "[1]; 50 µM", "result": "7.3±0.3", "unit": "%"}, {"measurement": "Percentage cytotoxicity on PC-3", "setting": "[1]; 100 µM", "result": "33.9±3.5", "unit": "%"}, {"measurement": "Percentage cytotoxicity on MCF-7", "setting": "[2]; 12.5 µM", "result": "0.0±0.005", "unit": "%"}, {"measurement": "Percentage cytotoxicity on MCF-7", "setting": "[2]; 25 µM", "result": "16.2±1.6", "unit": "%"}, {"measurement": "Percentage cytotoxicity on MCF-7", "setting": "[2]; 50 µM", "result": "41.3±4.3% and 36.6±6.3%"}, {"measurement": "Percentage cytotoxicity on MCF-7", "setting": "[2]; 100 µM", "result": "36.6±6.3% and 41.3±4.3%"}, {"measurement": "Percentage cytotoxicity on HCT-116", "setting": "[3]; 12.5 µM", "result": "12.94±4.6", "unit": "%"}, {"measurement": "Percentage cytotoxicity on HCT-116", "setting": "[3]; 25 µM", "result": "12.94±4.6", "unit": "%"}, {"measurement": "Percentage cytotoxicity on HCT-116", "setting": "[3]; 50 µM", "result": "25.8±1.6", "unit": "%"}, {"measurement": "Percentage cytotoxicity on HCT-116", "setting": "[3]; 100 µM", "result": "32.4±3.9", "unit": "%"}]}]}
